# Legend:
# [1] = system: human B cells in whole blood; assay: β-glucan binding to B cells in whole blood (BfD IV staining, flow cytometry)
# Procedure: Blood was collected from a healthy donor with 10 Units/mL Heparin. 100 μL of blood was mixed with IMPRIME PGG concentrations and incubated at 37° C. for 60 minutes. Cells were washed with 2 mL of PBS and supernatant removed by aspiration. Cells were then stained with 20 μL of BfD IV (U.S. Pat. No. 6,294,321) for 30 minutes before washing again with PBS. 10 μL of goat anti-mouse IgM FITC added to stain for BfD IV positive cells, while 10 μL of anti-CD19 APC was added to stain the B cell population for FACS analysis. Cells were incubated for 30 minutes at room temperature before washing with PBS. The red cells in the blood were lysed by the addition of 2 mL of BD Lyse and fixed with 2% paraformadehyde before analysis on an LSR II flow cytometer. Analysis was performed using FlowJo software.
# [2] = system: human B cells in enriched PBMC; assay: β-glucan binding to B cells in enriched PBMC (BfD IV staining, flow cytometry); settings: various hexose concentrations, 37° C., two hours
# Procedure: Enriched PBMC were resuspended at 1×10^6 cells/mL in RPMI 1640 supplemented with 10% serum. The β-glucans (IMPRIME PGG (B) and laminarin (C)) at various hexose concentration were added to the cells and incubated in a 37° C., 5% C02 humidified incubator for two hours. After incubation, cells were washed twice with FACS buffer (HBSS supplemented with 1% FBS and 0.1% sodium azide) to remove any unbound β-glucan, and subsequently treated with Fc block. After the Fc block step, cells were stained with the monoclonal antibody BfD IV (U.S. Pat. No. 6,294,321) for 30 minutes at 4° C. and washed twice with cold FACS buffer. Cells were then incubated with FITC-conjugated F(ab′)2 goat anti-mouse IgM for 30 minutes at 4° C. and washed once with cold FACS buffer before fixing with 1% paraformaldehyde. Events were collected on a LSRII flow cytometer and analysis was performed using FlowJo software. Results are shown in FIG. 2B (IMPRIME PGG) and FIG. 2C (laminarin).
# [3] = system: B cells; assay: Calcium flux in PBMC B cells treated in vitro with soluble β-glucan, then stimulated with anti-IgM; assay type: cell-based, human; settings: 100 μg/mL, 37° C., one hour; anti-IgM 2.6 μg/mL
# Procedure: FURA RED and FLUO-4 (each from Invitrogen, Life Technologies Corp., Carlsbad, Calif.) calcium stain was added to serum free RPMI medium to a final concentration of 3 μM for each dye, then incubated at 37° C. for 30 minutes. PBMCs mixed 1:1 with media containing 10% FCS and incubated an additional 10 minutes. The cells were washed 2× with media containing 10% FCS. Cells were resuspended in RPMI with 10% human serum.
# The resuspended cells were incubated with or without the addition of 100 μg/mL IMPRIME PGG at 37° C. for one hour. The monoclonal antibody CD20 APC (BioLegend, Inc., San Diego, Calif.) was added to each tube for 10 minute incubation before washing 2× with RPMI containing 10% FCS. Cells were resuspended in RPMI with 10% FCS for FACS analysis. Calcium flux was induced by stimulating the B cells with goat anti-human IgM at 2.6 μg/mL.
# [4] = system: Daudi cells; assay: Binding of IMPRIME PGG to B cell tumor line Daudi; parameters: species or system human; settings: 50 mcg/mL and 200 mcg/mL
# [5] = molecular target: T1, complement receptor 2, (CR2; aka CD21) on B cells (Homo sapiens, UniProt P20023); assay: β-glucan binding and CR2 blocking with anti-CR2 antibody; settings: IMPRIME PGG at 100 μg/mL; whole blood or PBMC; anti-CR2 clone 1048 at 10 μg/mL
# T1 construct: endogenous in cells; host or cells: B cells in whole blood or PBMC
# T1 sequence (P20023 21-1033): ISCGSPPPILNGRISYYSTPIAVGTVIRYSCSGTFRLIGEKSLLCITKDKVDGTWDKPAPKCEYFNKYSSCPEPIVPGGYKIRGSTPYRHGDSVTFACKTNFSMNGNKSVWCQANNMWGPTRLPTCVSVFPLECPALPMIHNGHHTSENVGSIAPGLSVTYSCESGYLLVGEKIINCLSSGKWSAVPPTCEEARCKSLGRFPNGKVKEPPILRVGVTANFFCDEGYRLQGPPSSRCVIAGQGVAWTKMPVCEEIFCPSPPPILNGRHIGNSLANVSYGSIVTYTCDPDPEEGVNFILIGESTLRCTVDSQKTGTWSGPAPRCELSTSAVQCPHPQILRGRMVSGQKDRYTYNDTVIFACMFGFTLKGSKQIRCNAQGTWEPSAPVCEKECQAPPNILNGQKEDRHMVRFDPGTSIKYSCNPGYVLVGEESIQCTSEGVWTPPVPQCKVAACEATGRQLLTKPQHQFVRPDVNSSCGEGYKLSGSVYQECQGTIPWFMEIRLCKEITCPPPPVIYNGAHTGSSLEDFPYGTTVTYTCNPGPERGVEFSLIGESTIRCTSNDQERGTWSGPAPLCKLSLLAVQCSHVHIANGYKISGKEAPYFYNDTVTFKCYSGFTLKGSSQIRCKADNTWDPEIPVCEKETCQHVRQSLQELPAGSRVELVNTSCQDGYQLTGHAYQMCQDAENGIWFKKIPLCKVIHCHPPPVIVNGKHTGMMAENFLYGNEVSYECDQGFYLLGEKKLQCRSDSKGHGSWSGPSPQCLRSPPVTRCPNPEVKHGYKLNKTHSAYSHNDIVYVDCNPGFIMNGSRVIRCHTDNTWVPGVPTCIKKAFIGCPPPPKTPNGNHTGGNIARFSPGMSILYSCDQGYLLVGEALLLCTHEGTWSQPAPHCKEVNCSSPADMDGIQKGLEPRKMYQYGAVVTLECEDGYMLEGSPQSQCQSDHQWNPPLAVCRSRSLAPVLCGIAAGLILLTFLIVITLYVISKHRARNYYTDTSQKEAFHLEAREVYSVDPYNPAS
# Procedure: Whole blood or PBMC were pre-incubated with specific receptor blocking antibodies or the relevant isotype controls at 4° C. for 30-45 minutes before addition of IMPRIME PGG at 100 μg/mL. Binding to B cells was performed as described in Example 1. Clone 1048, the mouse mAb against CR2, and mouse IgG1 isotype control was used at 10 μg/mL/1×10^6 cells. Results are shown in FIG. 3B (Whole Blood) and FIG. 3C (PBMC).
# [6] = system: CD19+ B cells; assay: Targeted binding of β-glucan and β-glucan-ERBITUX conjugate to CD19+ B cells in whole blood; parameters: species or system human; settings: 10 μg/mL, 30 minutes at 37° C.
# Procedure: Cells were washed twice with PBS before staining with the β-glucan specific antibody BfD IV (U.S. Pat. No. 6,294,321). Cells were washed again and stained with an antibodies specific for human IgG to detect ERBITUX and CD19 to label B cells. Cells were analyzed on and LSRII flow cytometer and the groups were compared by gating on CD19^+ B cells.
# [7] = system: Raji cells; assay: Binding of IMPRIME PGG to B cell tumor line Raji; parameters: species or system human; settings: 50 mcg/mL and 200 mcg/mL
# [8] = system: B cells; assay: Calcium flux in B cells of subjects treated in vivo with particulate oral β-glucan, then stimulated with anti-IgM; parameters: species or system human; settings: 100 mg/day to 1000 mg/day, anti-IgM 10, 2 or 0.4 μg/mL
# Procedure: Blood was drawn from untreated donors (n=15) or donors (n=12) treated with particulate oral β-glucan (U.S. Pat. No. 7,981,447) at dosages ranging from 100 mg/day to 1000 mg/day. PBMCs were isolated from blood using a ficoll gradient.
# The isolated PBMCs were treated with 6 μM FURA RED and 3 μM FLUO-4 (each from Invitrogen, Life Technologies Corp., Carlsbad, Calif.) in PBS for 45 minutes at 37° C. The cells were washed 2× with PBS and stained with anti-CD20 APC (BioLegend, Inc., San Diego, Calif.) for 20 minutes at room temperature. Cells were washed 2× and resuspended in RPMI containing 2.5% FCS for FACS analysis. Calcium flux was induced by stimulating the B cells with goat anti-human IgM at 10 μg/mL, 2 μg/mL, or 0.4 μg/mL.
substance,measurement,setting,value
BT-1110: bovine serum albumin (BSA) conjugated to IMPRIME PGG,MFI of BfD IV staining on B cells compared to unconjugated IMPRIME PGG,"[1]; 50 μg/mL, whole blood",higher
"β(1,6)-[poly-1,3)-D-glucopyranosyl]-poly-b(1,3)-D-glucopyranose [IMPRIME PGG]",binding to B cells in enriched PBMC (MFI of BfD IV staining),[2],bind directly to human B cells
same,calcium flux of B cells after goat anti-human IgM stimulation,[3],larger and more sustained calcium flux
same,binding to Daudi B cell tumor line,[4],bound to these tumor lines in a concentration-dependent manner
same,binding to CR2 on B cells (blocking by anti-CR2 antibody),[5],binds to complement receptor 2
same,binding to B cells in whole blood (MFI of BfD IV staining),"[1]; various concentrations, 37° C., 60 minutes",bind directly to human B cells
same,β-glucan detected on CD19+ B cells with anti-β-glucan antibody BfD IV,[6],positive for β-glucan
same,binding to Raji B cell tumor line,[7],bound to these tumor lines in a concentration-dependent manner
Laminarin [reference compound],binding to B cells in enriched PBMC (MFI of BfD IV staining),[2],bind directly to human B cells
"β(1,6)-[poly-1,3)-D-glucopyranosyl]-poly-b(1,3)-D-glucopyranose [particulate form of β-glucan]","calcium flux of B cells after goat anti-human IgM stimulation, treated vs untreated subjects",[8],decrease calcium flux
